From PubChem BioAssay AID2060895 (Molecular Pharmacology Branch, DTP, NCI, 2025)

Test system: PDC 899932-113-R3-J6 complex spheroid viability
Experiment: Anticancer human tumor 899932-113-R3-J6-PDC patient-derived melanoma cell line growth inhibition [RAS]
Conditions: for IC50: curve of first compound; for viability, T/C: stronger effect = lower value
Procedure, shortened: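 Tumour cells grown as complex spheroids with HUVEC endothelial cells and mesenchymal stem cells, treated with RAS pathway inhibitor combinations. Each agent spans half-log steps from near clinical Cmax, or 10 microM where Cmax is unknown.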

[1] = second compound 0.000949 µM, first compound 0.00316 µM
[2] = second compound 0.000949 µM, first compound 0.01 µM
[3] = second compound 0.000949 µM, first compound 0.0316 µM
[4] = second compound 0.000949 µM, first compound 0.1 µM
[5] = second compound 0.003 µM, first compound 0.00316 µM
[6] = second compound 0.003 µM, first compound 0.01 µM
[7] = second compound 0.003 µM, first compound 0.0316 µM
[8] = second compound 0.003 µM, first compound 0.1 µM
[9] = second compound 0.00949 µM, first compound 0.00316 µM
[10] = second compound 0.00949 µM, first compound 0.01 µM
[11] = second compound 0.00949 µM, first compound 0.0316 µM
[12] = second compound 0.00949 µM, first compound 0.1 µM
[13] = second compound 0.03 µM, first compound 0.00316 µM
[14] = second compound 0.03 µM, first compound 0.01 µM
[15] = second compound 0.03 µM, first compound 0.0316 µM
[16] = second compound 0.03 µM, first compound 0.1 µM
[17] = second compound 0.0949 µM, first compound 0.00316 µM
[18] = second compound 0.0949 µM, first compound 0.01 µM
[19] = second compound 0.0949 µM, first compound 0.0316 µM
[20] = second compound 0.0949 µM, first compound 0.1 µM
[21] = second compound 0.3 µM, first compound 0.00316 µM
[22] = second compound 0.3 µM, first compound 0.01 µM
[23] = second compound 0.3 µM, first compound 0.0316 µM
[24] = second compound 0.3 µM, first compound 0.1 µM
[25] = second compound 0.000949 µM, first compound 0.316 µM
[26] = second compound 0.000949 µM, first compound 1 µM
[27] = second compound 0.003 µM, first compound 0.316 µM
[28] = second compound 0.003 µM, first compound 1 µM
[29] = second compound 0.00949 µM, first compound 0.316 µM
[30] = second compound 0.00949 µM, first compound 1 µM
[31] = second compound 0.03 µM, first compound 0.316 µM
[32] = second compound 0.03 µM, first compound 1 µM
[33] = second compound 0.0949 µM, first compound 0.316 µM
[34] = second compound 0.0949 µM, first compound 1 µM
[35] = second compound 0.3 µM, first compound 0.316 µM
[36] = second compound 0.3 µM, first compound 1 µM
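Throughout, for viability, T/C: spheroids exposed to agents for seven days before readout; 100% = DMSO vehicle control wells.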

Compound: CC(C)n1nc(-c2ccc3oc(N)nc3c2)c2c(N)ncnc21 + CCn1c(-c2cccnc2C(C)OC)c2c3cc(ccc31)N1CCOC(CC(NC(=O)C(C(C)C)N(C)C(=O)C3(F)CCN(C(=O)C#CC(C)(C)N(C)C)CC3)C(=O)N3CCCC(N3)C(=O)OCC(C)(C)C2)C1
- IC50 (second compound 0.000949 µM): > 100 nM
- IC50 (second compound 0.003 µM): > 100 nM
- IC50 (second compound 0.00949 µM): > 100 nM
- IC50 (second compound 0.03 µM): > 100 nM
- IC50 (second compound 0.0949 µM): > 100 nM
- IC50 (second compound 0.3 µM): > 100 nM
- viability, T/C (second compound 0.000949 µM, first compound 0.000316 µM): 107%
- viability, T/C (second compound 0.000949 µM, first compound 0.001 µM): 97.1%
- viability, T/C [1]: 101%
- viability, T/C [2]: 85%
- viability, T/C [3]: 60.3%
- viability, T/C [4]: 100%
- viability, T/C (second compound 0.003 µM, first compound 0.000316 µM): 92.3%
- viability, T/C (second compound 0.003 µM, first compound 0.001 µM): 107%
- viability, T/C [5]: 96.7%
- viability, T/C [6]: 82%
- viability, T/C [7]: 65%
- viability, T/C [8]: 102%
- viability, T/C (second compound 0.00949 µM, first compound 0.000316 µM): 105%
- viability, T/C (second compound 0.00949 µM, first compound 0.001 µM): 100%
- viability, T/C [9]: 92.5%
- viability, T/C [10]: 85.6%
- viability, T/C [11]: 65.5%
- viability, T/C [12]: 100%
- viability, T/C (second compound 0.03 µM, first compound 0.000316 µM): 104%
- viability, T/C (second compound 0.03 µM, first compound 0.001 µM): 98.5%
- viability, T/C [13]: 89.3%
- viability, T/C [14]: 86.1%
- viability, T/C [15]: 61%
- viability, T/C [16]: 94.3%
- viability, T/C (second compound 0.0949 µM, first compound 0.000316 µM): 95.2%
- viability, T/C (second compound 0.0949 µM, first compound 0.001 µM): 93.5%
- viability, T/C [17]: 91.3%
- viability, T/C [18]: 76.7%
- viability, T/C [19]: 61.1%
- viability, T/C [20]: 93.1%
- viability, T/C (second compound 0.3 µM, first compound 0.000316 µM): 86.7%
- viability, T/C (second compound 0.3 µM, first compound 0.001 µM): 80.1%
- viability, T/C [21]: 75.6%
- viability, T/C [22]: 57.9%
- viability, T/C [23]: 51.2%
- viability, T/C [24]: 92.9%

Compound: CCN1CCN(Cc2ccc(Nc3ncc(F)c(-c4cc(F)c5nc(C)n(C(C)C)c5c4)n3)nc2)CC1 + CCn1c(-c2cccnc2C(C)OC)c2c3cc(ccc31)N1CCOC(CC(NC(=O)C(C(C)C)N(C)C(=O)C3(F)CCN(C(=O)C#CC(C)(C)N(C)C)CC3)C(=O)N3CCCC(N3)C(=O)OCC(C)(C)C2)C1
- IC50 (second compound 0.000949 µM): > 1000 nM
- IC50 (second compound 0.003 µM): 600 nM
- IC50 (second compound 0.00949 µM): 510 nM
- IC50 (second compound 0.03 µM): 520 nM
- IC50 (second compound 0.0949 µM): 641 nM
- IC50 (second compound 0.3 µM): > 1000 nM
- viability, T/C [1]: 105%
- viability, T/C [2]: 104%
- viability, T/C [3]: 99.5%
- viability, T/C [4]: 82.7%
- viability, T/C [25]: 52.9%
- viability, T/C [26]: 52.1%
- viability, T/C [5]: 108%
- viability, T/C [6]: 99.6%
- viability, T/C [7]: 96.1%
- viability, T/C [8]: 84.2%
- viability, T/C [27]: 57.6%
- viability, T/C [28]: 43.1%
- viability, T/C [9]: 105%
- viability, T/C [10]: 106%
- viability, T/C [11]: 96.6%
- viability, T/C [12]: 85.6%
- viability, T/C [29]: 52.4%
- viability, T/C [30]: 45.4%
- viability, T/C [13]: 103%
- viability, T/C [14]: 97.2%
- viability, T/C [15]: 92.5%
- viability, T/C [16]: 77.7%
- viability, T/C [31]: 52.3%
- viability, T/C [32]: 45.5%
- viability, T/C [17]: 99.8%
- viability, T/C [18]: 90.6%
- viability, T/C [19]: 88%
- viability, T/C [20]: 73.1%
- viability, T/C [33]: 55.7%
- viability, T/C [34]: 46.2%
- viability, T/C [21]: 91.4%
- viability, T/C [22]: 89.2%
- viability, T/C [23]: 83.4%
- viability, T/C [24]: 70.5%
- viability, T/C [35]: 49.9%
- viability, T/C [36]: 53.3%

Compound: C[C@@H](NC(=O)c1ncnc(N)c1Cl)c1ncc(C(=O)Nc2cc(C(F)(F)F)c(Cl)cn2)s1 + CCn1c(-c2cccnc2C(C)OC)c2c3cc(ccc31)N1CCOC(CC(NC(=O)C(C(C)C)N(C)C(=O)C3(F)CCN(C(=O)C#CC(C)(C)N(C)C)CC3)C(=O)N3CCCC(N3)C(=O)OCC(C)(C)C2)C1
- IC50 (second compound 0.000949 µM): 9800 nM
- IC50 (second compound 0.003 µM): 8890 nM
- IC50 (second compound 0.00949 µM): 9630 nM
- IC50 (second compound 0.03 µM): > 10000 nM
- IC50 (second compound 0.0949 µM): > 10000 nM
- IC50 (second compound 0.3 µM): > 10000 nM
- viability, T/C [3]: 117%
- viability, T/C [4]: 129%
- viability, T/C [25]: 141%
- viability, T/C [26]: 141%
- viability, T/C (second compound 0.000949 µM, first compound 3.16 µM): 120%
- viability, T/C (second compound 0.000949 µM, first compound 10 µM): 48.9%
- viability, T/C [7]: 122%
- viability, T/C [8]: 125%
- viability, T/C [27]: 137%
- viability, T/C [28]: 150%
- viability, T/C (second compound 0.003 µM, first compound 3.16 µM): 119%
- viability, T/C (second compound 0.003 µM, first compound 10 µM): 42.2%
- viability, T/C [11]: 125%
- viability, T/C [12]: 127%
- viability, T/C [29]: 140%
- viability, T/C [30]: 139%
- viability, T/C (second compound 0.00949 µM, first compound 3.16 µM): 120%
- viability, T/C (second compound 0.00949 µM, first compound 10 µM): 47.1%
- viability, T/C [15]: 121%
- viability, T/C [16]: 132%
- viability, T/C [31]: 139%
- viability, T/C [32]: 141%
- viability, T/C (second compound 0.03 µM, first compound 3.16 µM): 130%
- viability, T/C (second compound 0.03 µM, first compound 10 µM): 52.5%
- viability, T/C [19]: 114%
- viability, T/C [20]: 127%
- viability, T/C [33]: 135%
- viability, T/C [34]: 138%
- viability, T/C (second compound 0.0949 µM, first compound 3.16 µM): 120%
- viability, T/C (second compound 0.0949 µM, first compound 10 µM): 51.6%
- viability, T/C [23]: 108%
- viability, T/C [24]: 118%
- viability, T/C [35]: 127%
- viability, T/C [36]: 134%
- viability, T/C (second compound 0.3 µM, first compound 3.16 µM): 117%
- viability, T/C (second compound 0.3 µM, first compound 10 µM): 54%
